We go through 15 compounds from patent publication US8691764B2, “Inhibitors of NF-κB activity” (The Research Foundation for the State University of New York, priority 2007, dated 2014).

Assay [1] concerns annexin 1. In words: Induction of annexin 1 in BxPC-3 cells, Western blot of nuclear and cytoplasmic extracts. The class given is cell-based, human. The note with it: for expression of annexin 1: 5 mM conventional ASA, 100 μM cortisone; for annexin 1 expression with conventional NSAIDs: 6 h, each at 1 mM. On the procedure: The human pancreatic cancer cell line, BxPC-3, or the colon cancer cell line HT-29, both from ATCC (Manassas, Va.) were maintained and grown in RPMI 1640 or McCoy's 5A medium (Cellgro) supplemented with 10% fetal bovine serum (HyClone) and 1% penicillin/streptomycin (Cellgro) in a humidified incubator at 37° C. and 5% CO2.
The cell fractions were obtained as described by Andrews and Faller (N. C. Andrews and D. V. Faller, Nucleic Acids Res. 19:2499 (1991)) with modification. Briefly, the cells were pelleted after treatment and washed three times with PBS. The cell pellets were resuspended in ice cold buffer A (10 mM HEPES, pH 7.9, 10 mM KCl, 1.5 mM MgCI2, 0.5 mM DTT, 0.5 mM PMSF) with protease inhibitor cocktail (Sigma) and incubated on ice for 15 min with occasional mixing by gently tapping the tube. The cell lysates were centrifuged up to 5000 rpm for three times. The supernatants were collected as cytoplasmic extracts. Nuclear pellets were washed with buffer A and resuspended in buffer C (20 mM HEPES, pH 7.9, 450 mM NaCl, 1.5 mM MgCI2, 0.2 mM EDTA, 0.5 mM DTT, 0.5 mM PMSF, 25% Glycerol) with protease inhibitor cocktail (Sigma) and incubated on ice for 30 min with occasional mixing to extract nuclear proteins. Nuclear extracts were cleared by centrifugation (14,800 rpm for 10 min) and the supernatants were collected as nuclear extracts.
For Western blotting, the proteins from both cytoplasmic extracts and nuclear extracts were separated by SDS-polyacrylamide gel electrophoresis and transferred onto PVDF membranes (Millipore). The membranes were blocked in 5% nonfat dry milk-TBS-T (20 mM Tris-HCl, pH 7.5, 500 mM NaCl. 0.3% Tween 20) at room temperature (RT) for an hour and probed with anti-annexin 1, c-IAP-1, c-IAP-2, and TRAF-1 (Santa Cruz Biotechnology, Inc. CA), and anti-Bcl-2 antibodies (Cell Signaling Technology), in 5% nonfat dry milk-TBS-T at 4° C. overnight. The blots were washed three times with TBS-T for 5 min each wash and incubated with horseradish peroxidase-conjugated secondary antibody (Santa Cruz) in 5% nonfat dry milk-TBS-T at RT for an hour. After five washes with TBS-T, the blots were developed with the enhanced chemiluminescence system (ECL™ Western Blotting System, Amersham Biosciences) and exposed to x-ray film according to the manufacturer's instructions. Protein loading was normalized using anti-β-actin antibodies (Santa Cruz Biotechnology, Inc).

Assay [2] deals with T1, NF-κB (Homo sapiens, UniProt P19838+Q04206). In words: NF-κB activity ELISA (TransBinding NF-κB assay kit), BxPC-3 cells. The class given is cell-based. Details: endogenous in cells; host or cells: BxPC-3. Conditions: for NF-κB activity with peptides of annexin 1: BxPC-3 cells, 30 μM, 3 h. On the procedure:
(§1) NF-κB activity was measured in these cells using the TransBinding NF-κB assay kit and following the instructions of the manufacturer (Panomics). Briefly, nuclear extracts obtained as described above, were incubated for 30 min in an ELISA plate coated with NF-κB consensus DNA sequence to which p50 protein can bind. After binding, antibody against p50 was added and incubated for 1 hour, followed by HRP-conjugated antibody for 1 hour. Afterwards, luminol/enhancer solution and stable peroxide solution were added and chemoluminescence was detected using a luminometer (Bio-Rad).

The conditions of assay [3]: cortisol=1; cited from earlier work.
Assay [4] deals with SW480 tumor xenografts. In words: SW480 human colon cancer xenograft in nude mice. The class given is in vivo, BALB/c nude mice. Conditions: i.p. 40 μg once daily. As for the experimental part:
Female 6-week-old BALB/c nude mice were obtained from The Jackson Laboratory (Bar Harbor, Me.). The animals were housed in a climate- and light-controlled room. Food and water were allowed ad libitum. The SW480 human colon cancer cell line was used to establish xenografts in nude mice. 2×10^6 cells in 100 μl of PBS were injected subcutaneously (s.c.) into the upper portion of the left hind limb of the mice, where they grew as solid tumors. The size of the tumor was measured two times per week using a Venier caliper. The tumor volume was determined using the formula V=L×W(L+W/2)×0.56.
On the 7th day after inoculation, when the tumor size reached an average 240 mm^3, 18 mice were treated with QW-3 administered by i.p. injection of at a dose of 40 μg once daily. The control group (n=18) was administered the vehicle alone. The mice were sacrificed on day 12, and tumors were resected and stored in liquid nitrogen and formalin until further analysis.
Immunohistochemistry was performed on paraffin sections of the tumors. All sections were incubated at 95-100° C. in WCAP reagent (Surgipath) for 30 min, washed and then incubated in 10:1 Methanol:H2O2 for 10 min. Sections were then incubated in rabbit polyclonal PCNA (Santa Cruz, Calif.) or antibody detecting NF-κB activation (Chemicon) for 1 h after which immunoreactivity was detected with an Envision assay kit and DAB reagent (DakoCytomation). All sections were counterstained with haematoxylin and mounted. Negative controls included a non-specific antibody.

Assay [5] deals with SW480 human colon cancer cells. Briefly: Apoptosis, Cell Death Detection ELISA, SW480 cells. Format: cell-based. On the procedure:
Apoptosis was determined using the Cell Death Detection ELISA^PLUS assay kit according to the manufacturer's protocol (Roche, Indianapolis, Ind.). Briefly, the cells were treated with either NO-ASA or Dex for 3 h. Cells were harvested and washed three times with PBS. The cell pellet was resuspended with lysis buffer and incubated for 30 min at RT. Cell […] at 200×g for 10 min. The ELISA assay was performed using 20 μl cell lysate and 80 μl Immunoreagent (containing 72 μl Incubation Buffer, 4 μl Anti-histone-biotin Solution, and 4 μl Anti-DNA-POD Solution) per micro-plate well. The micro-plate was covered with an adhesive foil and incubated on a shaker under gentle shaking at 200 rpm for 2 h at RT. The solution in each well was removed thoroughly by tapping and the pellets were rinsed three times with 200 μl Incubation Buffer. […] The absorbance was measured at 405 nm using the SpectraMax micro-plate reader (Molecular Devices, Sunnyvale).
BxPC-3 or SW480 cells were treated with 30 μM of each of the peptides of annexin 1 for 3 h. NF-κB activity and apoptosis were measured in whole cell lysates using an ELISA assay as described in EXAMPLES 2 and 4. […]

Assay [6] concerns the target T1, NF-κB. Briefly: NF-κB activity ELISA, SW480 cells. Format: cell-based. On the set-up: endogenous in cells; host or cells: SW480. As for the experimental part: as §1, with “In the same manner as for NO-ASA, BxPC-3 cells were treated for 6 h with different corticosteroid inflammatory drugs, each at 4 μM, and tested for their ability to induce annexin 1. […] NF-κB activity” for “NF-κB activity”
BxPC-3 or SW480 cells were treated with 30 μM of each of the peptides of annexin 1 for 3 h. NF-κB activity and apoptosis were measured in whole cell lysates using an ELISA assay as described in EXAMPLES 2 and 4. […] These peptides are Ac-Gln-Ala-Trp, as set forth in SEQ ID NO:1, the peptide Ac-Phe-Gln-Ala-Tip, as set forth in SEQ ID NO:2 and the peptide Ac-Phe-Leu-Lys-Gln-Ala-Trp, as set forth in SEQ ID NO:3. Other depicted acetylated peptides are Ac-Phe-Leu-Lys (SEQ ID NO:14), Ac-Lys-Gln-Ala-Trp (SEQ ID NO:15), and Ac-Val-Ser-Glu-Lys-Gln-Ala-Trp (SEQ ID NO:16).

Where no end group is shown, it is not given here.

T1 sequence (Q04206 whole entry): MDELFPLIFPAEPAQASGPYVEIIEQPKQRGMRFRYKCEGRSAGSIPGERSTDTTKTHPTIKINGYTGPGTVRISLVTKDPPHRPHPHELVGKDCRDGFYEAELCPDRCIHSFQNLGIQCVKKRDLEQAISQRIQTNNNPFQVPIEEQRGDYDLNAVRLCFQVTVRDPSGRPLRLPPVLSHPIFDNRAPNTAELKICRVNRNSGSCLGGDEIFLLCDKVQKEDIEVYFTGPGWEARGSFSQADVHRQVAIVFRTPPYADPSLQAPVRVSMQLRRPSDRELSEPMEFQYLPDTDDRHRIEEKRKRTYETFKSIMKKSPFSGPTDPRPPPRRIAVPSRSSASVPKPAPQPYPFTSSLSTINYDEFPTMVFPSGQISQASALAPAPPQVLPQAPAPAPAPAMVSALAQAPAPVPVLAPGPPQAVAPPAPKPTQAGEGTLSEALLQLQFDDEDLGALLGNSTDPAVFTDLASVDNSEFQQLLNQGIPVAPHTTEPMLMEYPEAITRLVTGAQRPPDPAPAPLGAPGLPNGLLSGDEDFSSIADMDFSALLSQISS
T1 sequence (P19838 1-433 limits assumed): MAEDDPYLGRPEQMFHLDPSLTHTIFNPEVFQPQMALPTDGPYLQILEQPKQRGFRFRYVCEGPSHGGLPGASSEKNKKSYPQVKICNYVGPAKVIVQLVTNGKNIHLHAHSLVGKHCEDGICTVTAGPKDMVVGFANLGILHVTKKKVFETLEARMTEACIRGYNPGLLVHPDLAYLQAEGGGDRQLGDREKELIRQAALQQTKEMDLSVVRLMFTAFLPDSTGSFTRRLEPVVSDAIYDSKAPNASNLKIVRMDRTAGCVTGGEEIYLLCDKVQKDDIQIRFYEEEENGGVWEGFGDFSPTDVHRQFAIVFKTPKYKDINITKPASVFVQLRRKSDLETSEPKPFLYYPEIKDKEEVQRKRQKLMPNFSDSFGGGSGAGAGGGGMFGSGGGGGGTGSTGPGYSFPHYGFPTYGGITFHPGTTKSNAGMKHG

With `CC(=O)Oc1ccccc1C(=O)O` [conventional ASA, aspirin], in assay [1], the “expression of annexin 1” value is listed as “failed to induce” and the “annexin 1 expression with conventional NSAIDs” value (“annexin 1 expression” for short) was “no effect”. In assay [2] (cells and concentration not given), the “activity of NF-κB with weak anti-inflammatory drugs” value was “do not inhibit”.

On to `C[C@]12CCC(=O)C=C1CC[C@@H]1[C@@H]2[C@@H](O)C[C@@]2(C)[C@H]1CC[C@]2(O)C(=O)CO` [cortisol], for which, in assay [3], the relative anti-inflammatory potency is 1.

Consider `C[C@]12CCC(=O)C=C1CC[C@@H]1[C@@H]2C(=O)C[C@@]2(C)[C@H]1CC[C@]2(O)C(=O)CO` [cortisone], for which the “expression of annexin 1” value in assay [1] is listed as “failed to induce”.

In the case of `CC(C(=O)O)c1ccc(-c2ccccc2)c(F)c1` (stereo not drawn) [flurbiprofen], the “annexin 1 expression” value in assay [1] is reported as “no effect”.

Consider `CC(C)Cc1ccc(C(C)C(=O)O)cc1` (stereo not drawn) [ibuprofen], for which the “annexin 1 expression” value in assay [1] is “no effect”.

Turning to `COc1ccc2c(c1)c(CC(=O)O)c(C)n2C(=O)c1ccc(Cl)cc1` [indomethacin], the “annexin 1 expression” value in assay [1] is listed as “no effect”.

Take `CN1C(C(=O)Nc2ccccn2)=C(O)c2ccccc2S1(=O)=O` [piroxicam]: the “annexin 1 expression” value in assay [1] is on record as “no effect”.

`O=C(O)c1ccccc1O` [salicylic acid]: the “annexin 1 expression” value in assay [1] is reported as “no effect”.

On to `CC1=C(CC(=O)O)c2cc(F)ccc2/C1=C\c1ccc([S+](C)[O-])cc1` (stereo not drawn) [sulindac], for which the “annexin 1 expression” value in assay [1] was “no effect”.

For the compound `C[C@]12C=CC(=O)C=C1CC[C@H]1[C@@H]3C[C@@H](O)[C@](O)(C(=O)CO)[C@@]3(C)C[C@H](O)[C@@]12F` [triamincinolone], in assay [3], the relative anti-inflammatory potency is 5.

On to Ac-AMVSEFKQAWFIENEEQQYVQTVK [Ac2-26], for which the “NF-κB activity with peptides of annexin 1” value (shortened to “NF-κB activity with peptides”) in assay [2] is “inhibited NF-κB activity”.

With “Ac-Ala-Met-Val-Ser-Glu-Phe-Leu-Lys-Gln-Ala-Trp (Ac-AMVSEFLKQAW) [Ac2-12, commercial peptide of annexin 1]”, the “NF-κB activity with peptides” value in assay [2] was “inhibited NF-κB activity”.

As for Ac-Gln-Ala-Trp [QW-3], in assay [2], the “NF-κB activity with peptides” value was “inhibited NF-κB activity”. Besides, in assay [4], the “blood levels of IL-6” value was “decreased levels of IL-6”, the “blood levels of IL-10” value is “increased the blood levels of IL-10” and the tumor growth result is on record as “suppressed tumor growth”. In assay [4] (tumor sections), the “NF-κB activity in tumors” value was “inhibited NF-κB activity” and the “cell proliferation by expression of PCNA (immunohistochemistry)” value was “inhibited cell proliferation”. Moreover, the apoptosis entry in assay [5] was “enhanced SW480 cell apoptosis”. In assay [6], the NF-κB activity result is recorded as “inhibited NF-κB activity in a concentration-dependent manner”.

Turning to “Ac-Phe-Gln-Ala-Trp (Ac-FQAW) [Ac-Phe-Gln-Ala-Tip]”, the “NF-κB activity with peptides” value in assay [2] is “inhibited NF-κB activity”.

For the compound Ac-Phe-Leu-Lys-Gln-Ala-Trp (Ac-FLKQAW), the “NF-κB activity with peptides” value in assay [2] was “inhibited NF-κB activity”.
